Laboratory results taken from patent US20230141783A1, “DIFFERENT FORMS OF 6-CHLORO-2-ETHYL-N-(4-(4-(4-(TRIFLUOROMETHOXY)PHENYL)PIPERIDINE-1-YL)BENZYL)IMIDAZO[1,2-A]PYRIDINE-3-CARBOXAMIDE” (priority 2019, published 2023).
Converted amounts (≈) assume the structure as drawn. “Also recorded” adds a separate entry of the source. Where two headings read alike, the source gives them in different places.

Columns and labels:
[1] = Approximate solubility of the free base by gravimetry method; assay type: physicochemical; conditions: organic solvent or mixture, thermodynamic from solid
Experimental: The objective of measuring solubility of free base was to identify potential solvents for salt formation process development. Approximate solubility of the free base was measured by gravimetry method. Excess solids were added to various solvents including some Class III solvents (ICH guideline) at RT and 50° C. Since the solubility in these solvents is generally low, it was decided to mix water with these solvents. The suspensions were slurried for one day; the clear liquors from the top portion of the suspension were used for solubility determination by gravimetry method.

[2] = pKa analysis (UV-metric titration); assay type: physicochemical; conditions: methanol-water co-solvent, aqueous values by Yasuda-Shedlovsky extrapolation, 25.0-25.1 °C, 0.15 M KCl
Experimental: The sample pKas were determined using the spectrometric (UV-metric) technique. The sample was titrated in a UV-metric triple titration from pH 2.0-12.0 at concentrations of 31 -23 µM, under methanol-water co-solvent conditions (the methanol mixing ratio varied from 63.9 to 46.7% w/w).
It should be noted that an additional potentiometric assay was carried out which confirmed the pKas and that there were no further pKas associated with the sample within the measurable pH range (2.0-12.0).

cytochrome bc1 = cytochrome bc1 (Mycobacterium tuberculosis, UniProt P9WP37); conditions: Pethe et al., Nature Medicine, 19, 1157-1160 (2013); inhibiting cytochrome bc1 activity; cited from earlier work
cytochrome bc1, sequence (P9WP37 whole entry, looked up): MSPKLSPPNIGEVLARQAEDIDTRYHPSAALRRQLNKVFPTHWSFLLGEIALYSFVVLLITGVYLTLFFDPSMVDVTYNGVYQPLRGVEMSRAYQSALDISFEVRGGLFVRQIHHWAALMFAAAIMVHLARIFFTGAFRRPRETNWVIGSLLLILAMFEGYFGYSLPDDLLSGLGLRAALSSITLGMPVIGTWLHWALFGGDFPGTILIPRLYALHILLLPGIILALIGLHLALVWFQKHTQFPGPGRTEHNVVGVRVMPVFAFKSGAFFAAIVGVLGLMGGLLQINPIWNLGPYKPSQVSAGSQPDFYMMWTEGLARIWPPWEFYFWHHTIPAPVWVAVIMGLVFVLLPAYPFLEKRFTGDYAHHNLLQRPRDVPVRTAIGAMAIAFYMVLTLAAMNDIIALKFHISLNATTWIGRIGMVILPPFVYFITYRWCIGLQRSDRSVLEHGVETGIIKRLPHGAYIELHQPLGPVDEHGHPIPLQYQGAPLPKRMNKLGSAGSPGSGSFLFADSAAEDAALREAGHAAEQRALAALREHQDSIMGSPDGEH

[3] = Solubility estimation by aliquot addition and Clarity temperature cycling; conditions: for solubility: 20 °C, organic solvent or mixture, thermodynamic from solid
[4] = mono-tosylate
physchem [5] = conditions: pH 1, simulated gastric fluid, thermodynamic from solid
DVS water absorption = assay type: physicochemical; conditions: 90% RH at RT; ditosylate
Text: (FIGS. 4-5). It is the predominant form obtained in slurry experiments. Conversion from Form A to other XRPD patterns was mainly obtained from methanol (to Form C) or water (to pattern B) in the slurry medium. However, as it will be shown in further sections, Form C is converted to Form A upon re-slurry in the majority of other solvents (than methanol).
FIGS. 9 to 11 show XRPD, DSC, and TGA of a solid with Form C. […] The XRPD peaks of pattern C are sharper than those of Form A. Form C is the predominant form when methanol is used as the slurry medium. However, Form “C” is not a methanol solvate form of the di-tosylate salt. Many reactive crystallization experiments using different solvents generated Form C immediately after salt formation.

[6] = Exposing Forms A and C in 100% RH at RT (XRPD/DSC); assay type: physicochemical; conditions: 100% RH at RT for 6 days, ditosylate
Text: Forms A and C were exposed in 100% RH environment at RT for 6 days; the solids were subsequently analyzed using DSC and XRPD.
In FIGS. 1 and 17, the XRPD of sample of Form A (previous obtained form EA and IPA/MEK) before and after 6 days exposure to 100% RH are sketched. FIGS. 19 and 20 show the DSC scan of the same samples after exposure. […] FIGS. 18 and 21 show the result of the same treatment for Form C.

[7] = Forms A and C re-slurry in pure solvents at RT (aging experiments, XRPD); assay type: physicochemical; conditions: re-slurry of Forms A and C at RT; except in methanol
Experimental: These experiments were performed to investigate potential transformation between Form A and C. The procedure of the experiments is shown below. • 15 mg Form A and 15 mg Form C were add into a 1.5 ml vial with magnetic stirrer. • 20 vol (600 ul) of various solvents was added into the vial • The suspensions were stir at RT for 5 days • Then filter and the solid was sent for XRPD (before and after drying in oven) and DSC

[8] = Long-term stability at 25° C./60% RH (HPLC); assay type: physicochemical; conditions: for Purity [%] (as measured by HPLC): 25° C./60% RH
[9] = Stability under accelerated conditions 40° C./75% RH (HPLC); assay type: physicochemical; conditions: 40° C./75% RH, 6 months
physchem [10] = conditions: thermodynamic from solid
Experimental: Approximate solubility of the starting di-tosylate salt (Form A) was measured by gravimetry method. 100 mg of the solid was suspended in 10 vol of various solvents and stirred at RT and 50° C. for 3 days. The mother liquid was then used to measure the solubility.

In the case of CCc1nc2ccc(Cl)cn2c1C(=O)NCc1ccc(N2CCC(c3ccc(OC(F)(F)F)cc3)CC2)cc1 [Q203 free base, 6-chloro-2-ethyl-N-(4-(4-(4-(trifluoromethoxy)phenyl)piperidine-1-yl)benzyl)imidazo[1,2-a]pyridine-3-carboxamide], the solubility at 1 day ([1]; Acetone+5%water, 50° C.) is reported as 74 mg/mL (≈ 133 mM), the solubility at 1 day ([1]; Acetone+5%water, RT) is reported as 22 mg/mL (≈ 39.5 mM) and the solubility at 1 day ([1]; Acetone+10%water, 50° C.) is reported as 42 mg/mL (≈ 75.4 mM). For the same compound, the solubility at 1 day ([1]; Acetone, 50° C.) was 48 mg/mL (≈ 86.2 mM), the solubility at 1 day ([1]; EA and its mixture with water, 50° C.) was 55 to 98 mg/mL (≈ 98.7 to 176 mM) and the solubility at 1 day ([1]; EA+4%water, 50° C.) was 55 mg/mL (≈ 98.7 mM). For the same compound, the solubility at 1 day ([1]; EA+4%water, RT) was 16 mg/mL (≈ 28.7 mM), the solubility at 1 day ([1]; Ethyl Acetate (EA), 50° C.) was 99 mg/mL (≈ 178 mM) and the solubility at 1 day ([1]; Ethyl Acetate (EA), RT) was 13 mg/mL (≈ 23.3 mM). For the same compound, the solubility at 1 day ([1]; IPA or its mixture with water, 50° C.) was 11 to 22 mg/mL (≈ 19.7 to 39.5 mM), the solubility at 1 day ([1]; IPA+5%water, 50° C.) was 22 mg/mL (≈ 39.5 mM) and the solubility at 1 day ([1]; IPA+15%water, 50° C.) was 11 mg/mL (≈ 19.7 mM). It also gave a solubility at 1 day ([1]; IPAC+4%water, 50° C.) of 35 mg/mL (≈ 62.8 mM), a solubility at 1 day ([1]; Isopropyl Acetate (IPAC), 50° C.) of 51 mg/mL (≈ 91.6 mM) and a solubility at 1 day ([1]; Isopropyl Acetate (IPAC), RT) of 26 mg/mL (≈ 46.7 mM). It also gave a solubility at 1 day ([1]; Isopropyl Alcohol (IPA), 50° C.) of 20 mg/mL (≈ 35.9 mM), a solubility at 1 day ([1]; MA+4%water, 50° C.) of 105 mg/mL (≈ 189 mM) and a solubility at 1 day ([1]; MA+4%water, RT) of 18 mg/mL (≈ 32.3 mM). The solubility at 1 day ([1]; Methyl Amine (MA), 50° C.) was 94 mg/mL (≈ 169 mM), the solubility at 1 day ([1]; Methyl Amine (MA), RT) was 38 mg/mL (≈ 68.2 mM) and the solubility at 1 day ([1]; Tetrahydrofuran (THF), 50° C.) was 279 mg/mL (≈ 501 mM). For the same compound, the solubility at 1 day ([1]; Tetrahydrofuran (THF), RT) was 133 mg/mL (≈ 239 mM), the solubility at 1 day ([1]; acetone and its mixture with water, 50° C.) was 41 to 74 mg/mL (≈ 73.6 to 133 mM) and the solubility at 1 day ([1]; methyl acetate, 50° C.) was 94 to 105 mg/mL (≈ 169 to 189 mM). For the same compound, the pKa [2] was 3.7 ± 0.06, the activity against tuberculosis (cytochrome bc1) was “active against tuberculosis” and the Tcryst ([3]; IPA) was 37.0-39.3 °C. The Tdisso ([3]; IPA) was 52.5-55.7 °C, the solubility ([3]; IPA) was < 25.3 mg/mL and the Tcryst ([3]; MEK) was “not observed”. For the same compound, the Tdisso ([3]; MEK) was “ambient”, the solubility ([3]; MEK) was 50 to 56 mg/mL (≈ 89.8 to 101 mM) and the Tcryst ([3]; acetone) was “*not observed”. For the same compound, the solubility ([3]; acetone) was < 25.4 mg/mL, the Tdisso ([3]; acetone, partial solubility when heated, solid remained after two Clarity heat/cool cycles) was “*35 °C” and the Tcryst ([3]; acetonitrile) was 47.4-47.9 °C. The Tdisso ([3]; acetonitrile) was 58.2-58.9 °C, the solubility ([3]; acetonitrile) was < 25 mg/mL and the Tcryst ([3]; dichloromethane) was “not observed”. For the same compound, the Tdisso ([3]; dichloromethane) was “ambient”, the solubility ([3]; dichloromethane) was 169 to 253 mg/mL (≈ 303 to 454 mM) and the Tcryst ([3]; dimethyl sulfoxide) was 32.8-39.3 °C. For the same compound, the Tdisso ([3]; dimethyl sulfoxide) was 53.6-54.7 °C, the solubility ([3]; dimethyl sulfoxide) was < 25.5 mg/mL and the Tcryst ([3]; ethyl acetate) was “not observed”. For the same compound, the Tdisso ([3]; ethyl acetate) was “ambient”, the solubility ([3]; ethyl acetate) was 34 to 36 mg/mL (≈ 61 to 64.6 mM) and the Tcryst ([3]; methanol) was 25.3-26.6 °C. The Tdisso ([3]; methanol) was 45.6-47.1 °C, the solubility ([3]; methanol) was < 25 mg/mL and the Tcryst ([3]; methyl tert-butyl ether) was “not observed”. For the same compound, the Tdisso ([3]; methyl tert-butyl ether) was “not observed”, the solubility ([3]; methyl tert-butyl ether) was < 25.6 mg/mL and the Tcryst ([3]; tetrahydrofuran) was “not observed”. For the same compound, the Tdisso ([3]; tetrahydrofuran) was “ambient” and the solubility ([3]; tetrahydrofuran) was 128 to 255 mg/mL (≈ 230 to 458 mM).

In the case of CCc1nc2ccc(Cl)cn2c1C(=O)NCc1ccc(N2CCC(c3ccc(OC(F)(F)F)cc3)CC2)cc1.Cc1ccc(S(=O)(=O)O)cc1 [pTSA salt, 6-chloro-2-ethyl-N-(4-(4-(4-(trifluoromethoxy)phenyl)piperidine-1-yl)benzyl)imidazo[1,2-a]pyridine-3-carboxamide mono-tosylate], the “solid form after slurrying in buffer (XRPD)” value (shortened to “solid form after slurrying”) ([4]; pH 1 buffer, listed as pTSA) is reported as “remained the same pattern”, the “solid form after slurrying” value ([4]; pH 1 buffer) is reported as “remained stable” and the “solid form after slurrying” value ([4]; pH 4.5 and above) is reported as “converted to freebase (type 28)”. The solubility (physchem [5]) was ~0.33 mg/mL.

For CCc1nc2ccc(Cl)cn2c1C(=O)NCc1ccc(N2CCC(c3ccc(OC(F)(F)F)cc3)CC2)cc1.Cc1ccc(S(=O)(=O)O)cc1.Cc1ccc(S(=O)(=O)O)cc1 [Form A, 6-chloro-2-ethyl-N-(4-(4-(4-(trifluoromethoxy)phenyl)piperidine-1-yl)benzyl)imidazo[1,2-a]pyridine-3-carboxamide ditosylate], the “water absorption (DVS)” value (DVS water absorption) was “around 0.35%”, the “crystalline form after exposure to 100% RH” value [6] was “maintains its crystalline form; also recorded: no change to crystalline” and the relative polymorph stability [7] was “more stable than Form C”. The long-term storage stability ([8]; 25° C. and 60% RH for up to 60 months, listed as Q203-ditosylate form A, ditosylate) was “remains stable”, the “Purity [%] (as measured by HPLC)” value ([8]; 0 months) was >98% and the “Purity [%] (as measured by HPLC)” value ([8]; 6 months) was >98%. For the same compound, the “Purity [%] (as measured by HPLC)” value ([8]; 12 months) was >98%, the “Purity [%] (as measured by HPLC)” value ([8]; 24 months) was >98% and the “Purity [%] (as measured by HPLC)” value ([8]; 36 months) was >98%. The “Purity [%] (as measured by HPLC)” value ([8]; 48 months) was >98%, the “Purity [%] (as measured by HPLC)” value ([8]; 60 months) was >98% and the “purity (HPLC)” value [9] was > 98%. The Approximate solubility (Acetone, 50° C.) was “nil”, the Approximate solubility (Acetone, RT) was “nil” and the Approximate solubility (Acetonitrile, 50° C.) was “nil”. The Approximate solubility (Acetonitrile, RT) was “nil”, the Approximate solubility (Dichloromethane (DCM), 50° C.) was “nil” and the Approximate solubility (Dichloromethane (DCM), RT) was “nil”. For the same compound, the Approximate solubility (EA, 50° C.) was “nil”, the Approximate solubility (EA, RT) was “nil” and the Approximate solubility (IPA, RT) was “nil”. The Approximate solubility (IPAC, 50° C.) was “nil”, the Approximate solubility (IPAC, RT) was “nil” and the Approximate solubility (MA, 50° C.) was “nil”. For the same compound, the Approximate solubility (MA, RT) was “nil”, the Approximate solubility (Methul Isobutyl Ketone (MIBK), RT) was “nil” and the Approximate solubility (Methyl Ethyl Ketone (MEK), 50° C.) was “nil”. The Approximate solubility (Methyl Ethyl Ketone (MEK), RT) was “nil”, the Approximate solubility (Methyl tert-Butyl Ether (TBME), 50° C.) was “nil” and the Approximate solubility (Methyl tert-Butyl Ether (TBME), RT) was “nil”. For the same compound, the Approximate solubility (THF, 50° C.) was “nil”, the Approximate solubility (THF, RT) was “nil” and the Approximate solubility (Water, RT) was “nil”. For the same compound, the solubility at 3 days (physchem [10]; IPA, 50 °C, organic solvent or mixture) was 3 mg/mL, the solubility at 3 days (physchem [10]; ethanol (EtOH), 50 °C, organic solvent or mixture) was 7 mg/mL and the solubility at 3 days (physchem [10]; ethanol (EtOH), organic solvent or mixture) was 1 mg/mL. It also gave a solubility at 3 days (physchem [10]; methanol (MeOH), 50 °C, organic solvent or mixture) of 275 mg/mL, a solubility at 3 days (physchem [10]; methanol (MeOH), organic solvent or mixture) of 126 mg/mL and a solubility at 3 days (physchem [10]; methyl isobutyl ketone (MIBK), 50 °C, organic solvent or mixture) of 2 mg/mL. The solubility at 3 days (physchem [10]; toluene, 50 °C, organic solvent or mixture) was 3 mg/mL, the solubility at 3 days (physchem [10]; toluene, organic solvent or mixture) was 1 mg/mL and the solubility at 3 days (physchem [10]; water, 50 °C) was 3 mg/mL.
